From PMC4083421 (Nature Communications, 2014)
Read-outs that look alike come from different tables or passages of the source.

Legend:
Format in all cases: binding
1LysM module of AtlA [1] = biological target: T1, 1LysM module of AtlA (Enterococcus faecalis, UniProt P37710); assay: biochemical
1 (1LysM, WT) [2] = biological target: T2, 1 (1LysM, WT) (Enterococcus faecalis, UniProt P37710); assay: Steady-state SPR
L1 = L1 (Enterococcus faecalis, UniProt P37710); assay: Steady-state SPR
L1L2 = L1L2 (Enterococcus faecalis, UniProt P37710); assay: Steady-state SPR
L1L2L3 = biological target: T3, L1L2L3 (Enterococcus faecalis, UniProt P37710); assay: Steady-state SPR; conditions: SD
T3 sequence (P37710 338-542 A476S/S477A): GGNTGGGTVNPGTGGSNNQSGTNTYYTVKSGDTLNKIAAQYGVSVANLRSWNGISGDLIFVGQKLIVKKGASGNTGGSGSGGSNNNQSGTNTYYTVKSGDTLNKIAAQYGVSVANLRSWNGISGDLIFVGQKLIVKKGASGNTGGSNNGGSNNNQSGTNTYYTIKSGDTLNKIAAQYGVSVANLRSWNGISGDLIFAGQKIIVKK

L1–L6 = biological target: T4, L1–L6 (Enterococcus faecalis, UniProt P37710); assay: Steady-state SPR; conditions: SD
T4 sequence (P37710 338-737): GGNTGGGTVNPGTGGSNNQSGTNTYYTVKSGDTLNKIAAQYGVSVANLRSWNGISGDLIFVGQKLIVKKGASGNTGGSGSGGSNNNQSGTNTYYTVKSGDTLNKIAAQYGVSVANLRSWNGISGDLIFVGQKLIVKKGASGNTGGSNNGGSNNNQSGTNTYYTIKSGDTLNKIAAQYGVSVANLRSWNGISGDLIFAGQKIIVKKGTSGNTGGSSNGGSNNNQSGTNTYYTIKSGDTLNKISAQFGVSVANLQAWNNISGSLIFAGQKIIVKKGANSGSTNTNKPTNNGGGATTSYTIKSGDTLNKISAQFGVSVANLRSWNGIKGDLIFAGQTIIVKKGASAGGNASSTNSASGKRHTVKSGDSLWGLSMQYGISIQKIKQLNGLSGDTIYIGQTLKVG

1LysM module of AtlA [3] = biological target: T1, 1LysM module of AtlA; assay: biochemical; conditions: Apparent KD to 1LysM (SPR), single LysM module; ± standard deviation
1 (1LysM, WT) [4] = biological target: T2, 1 (1LysM, WT); assay: SPR

SMILES	Kd (L1L2L3)	Kd (L1–L6)	Kd (L1; SD)	Kd (L1L2; SD)	Kd (1LysM module of AtlA [3])	other results
CC(=O)N[C@H]1[C@H](O[C@H]2[C@H](O[C@H](C)C(=O)O)[C@@H](NC(C)=O)C(O)O[C@@H]2CO)O[C@H](CO)[C@@H](O[C@@H]2O[C@H](CO)[C@@H](O[C@@H]3O[C@H](CO)[C@@H](O)[C@H](O)[C@H]3NC(C)=O)[C@H](O[C@H](C)C(=O)O)[C@H]2NC(C)=O)[C@@H]1O (stereo partly drawn) [(GlcNAc-MurNAc)2, (GlcNAc-β−1,4-MurNAc)2]						Kd (1LysM module of AtlA [1]): 650 µM
CC(=O)N[C@H]1[C@H](O[C@H]2[C@H](O)[C@@H](NC(C)=O)C(O)O[C@@H]2CO)O[C@H](CO)[C@@H](O)[C@@H]1O (stereo partly drawn) [GlcNAc2, chitobiose (di-N-acetylchitobiose, beta-1,4-linked GlcNAc dimer)]	7100 µM	4420 µM				Kd (1 (1LysM, WT) [2]): > 5000 µM; Kd (L1): > 5000 µM; Kd (L1L2): > 5000 µM
CC(=O)N[C@H]1[C@H](O[C@H]2[C@H](O)[C@@H](NC(C)=O)C(O)O[C@@H]2CO)O[C@H](CO)[C@@H](O[C@@H]2O[C@H](CO)[C@@H](O)[C@H](O)[C@H]2NC(C)=O)[C@@H]1O (stereo partly drawn) [GlcNAc3, chitotriose (tri-N-acetylchitotriose, beta-1,4-linked GlcNAc trimer)]	628 ± 32.8 µM	702 ± 87.7 µM	453 ± 58.6 µM	678 ± 57.3 µM		
CC(=O)N[C@H]1[C@H](O[C@H]2[C@H](O)[C@@H](NC(C)=O)C(O)O[C@@H]2CO)O[C@H](CO)[C@@H](O[C@@H]2O[C@H](CO)[C@@H](O)[C@H](O)[C@H]2NC(C)=O)[C@@H]1O (stereo partly drawn) [GlcNAc3]					408 ± 80.8 µM	
CC(=O)N[C@H]1[C@H](O[C@H]2[C@H](O)[C@@H](NC(C)=O)C(O)O[C@@H]2CO)O[C@H](CO)[C@@H](O[C@@H]2O[C@H](CO)[C@@H](O[C@@H]3O[C@H](CO)[C@@H](O)[C@H](O)[C@H]3NC(C)=O)[C@H](O)[C@H]2NC(C)=O)[C@@H]1O (stereo partly drawn) [GlcNAc4, chitotetraose (tetra-N-acetylchitotetraose, beta-1,4-linked GlcNAc tetramer)]	22.3 ± 1.8 µM	18.6 ± 4.5 µM	50.4 ± 4.1 µM	38.1 ± 2.8 µM		
CC(=O)N[C@H]1[C@H](O[C@H]2[C@H](O)[C@@H](NC(C)=O)C(O)O[C@@H]2CO)O[C@H](CO)[C@@H](O[C@@H]2O[C@H](CO)[C@@H](O[C@@H]3O[C@H](CO)[C@@H](O)[C@H](O)[C@H]3NC(C)=O)[C@H](O)[C@H]2NC(C)=O)[C@@H]1O (stereo partly drawn) [GlcNAc4, reference compound]					43.4 ± 3 µM	Kd (1LysM module of AtlA [1]): 90 µM
CC(=O)N[C@H]1[C@H](O[C@H]2[C@H](O)[C@@H](NC(C)=O)[C@H](O[C@H]3[C@H](O)[C@@H](NC(C)=O)C(O)O[C@@H]3CO)O[C@@H]2CO)O[C@H](CO)[C@@H](O[C@@H]2O[C@H](CO)[C@@H](O[C@@H]3O[C@H](CO)[C@@H](O)[C@H](O)[C@H]3NC(C)=O)[C@H](O)[C@H]2NC(C)=O)[C@@H]1O (stereo partly drawn) [GlcNAc5, chitopentaose (penta-N-acetylchitopentaose, beta-1,4-linked GlcNAc pentamer)]	4.6 ± 0.4 µM	2.2 ± 0.3 µM	12.1 ± 1.4 µM	9.6 ± 0.8 µM		Kd (1 (1LysM, WT) [4]): 11.7 ± 1.7 µM
CC(=O)N[C@H]1[C@H](O[C@H]2[C@H](O)[C@@H](NC(C)=O)[C@H](O[C@H]3[C@H](O)[C@@H](NC(C)=O)C(O)O[C@@H]3CO)O[C@@H]2CO)O[C@H](CO)[C@@H](O[C@@H]2O[C@H](CO)[C@@H](O[C@@H]3O[C@H](CO)[C@@H](O[C@@H]4O[C@H](CO)[C@@H](O)[C@H](O)[C@H]4NC(C)=O)[C@H](O)[C@H]3NC(C)=O)[C@H](O)[C@H]2NC(C)=O)[C@@H]1O (stereo partly drawn) [GlcNAc6, chitohexaose (hexa-N-acetylchitohexaose, beta-1,4-linked GlcNAc hexamer)]	3 ± 0.1 µM	1.5 ± 0.1 µM	5.6 ± 0.5 µM	5 ± 0.3 µM		
CC(=O)N[C@H]1[C@H](O[C@H]2[C@H](O)[C@@H](NC(C)=O)[C@H](O[C@H]3[C@H](O)[C@@H](NC(C)=O)C(O)O[C@@H]3CO)O[C@@H]2CO)O[C@H](CO)[C@@H](O[C@@H]2O[C@H](CO)[C@@H](O[C@@H]3O[C@H](CO)[C@@H](O[C@@H]4O[C@H](CO)[C@@H](O)[C@H](O)[C@H]4NC(C)=O)[C@H](O)[C@H]3NC(C)=O)[C@H](O)[C@H]2NC(C)=O)[C@@H]1O (stereo partly drawn) [GlcNAc6]					6 ± 0.8 µM	
